Experimental data: patent US9403801B2 (Calitor Sciences, LLC, priority 2014, dated 2016)

How the values were obtained:
[1] = Compound stability in rat liver microsomes; type: in vitro ADME
Outline: (§1)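 Compound (5 μM) was incubated at 37° C with human or rat liver microsomes (0.5 mg protein/mL) and 1.0 mM NADPH in 100 mM potassium phosphate, pH 7.4, with 0.05% final DMSO. Samples taken at 0–60 min were quantified by LC/MS/MS as % of time zero, and CLint was extrapolated.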

JAK2 (h) = JAK2 (h) (Homo sapiens (Human), UniProt O60674); experiment: JAK2 kinase assay (33P-ATP filter binding, Millipore); type: biochemical
Experimental: (§2) Kinase assays can be performed by measurement of incorporation of γ-^33P ATP into immobilized myelin basic protein (MBP). High binding white 384 well plates (Greiner) are coated with MBP (Sigma #M−1891) by incubation of 60 μL/well of 20 μg/mL MBP in Tris-buffered saline (TBS; 50 mM Tris pH 8.0, 138 mM NaCl, 2.7 mM KCl) for 24 h at 4° C. Plates are washed 3× with 100 μL TBS. Kinase reactions are carried out in a total volume of 34 μL in kinase buffer (5 mM Hepes pH 7.6, 15 mM NaCl, 0.01% bovine gamma globulin (Sigma #I-5506), 10 mM MgCl2, 1 mM DTT, 0.02% TritonX-100). Compound dilutions are performed in DMSO and added to assay wells to a final DMSO concentration of 1%. Each data point is measured in duplicate, and at least two duplicate assays are performed for each individual compound determination. Enzyme is added to final concentrations of 10 nM or 20 nM, for example. A mixture of unlabeled ATP and γ-^33P ATP is added to start the reaction (2×10^6 cpm of γ-^33P ATP per well (3000 Ci/mmole) and 10 μM unlabeled ATP, typically. The reactions are carried out for 1 h at room temperature with shaking. Plates are washed 7× with TBS, followed by the addition of 50 μL/well scintillation fluid (Wallac). Plates are read using a Wallac Trilux counter. This is only one format of such assays; various other formats are possible, as known to one skilled in the art.
(§3) The above assay procedure can be used to determine the IC50 for inhibition and/or the inhibition constant, Ki. The IC50 is defined as the concentration of compound required to reduce the enzyme activity by 50% under the condition of the assay. The IC50 value is estimated by preparing a 10 point curve using a 1/2 log dilution series (for example, a typical curve may be prepared using the following compound concentrations: 3 μM, 1 μM, 0.3 μM, 0.1 μM, 0.03 μM, 0.01 μM, 0.003 μM, 0.001 μM, 0.0003 μM and 0 μM).
(§4) The kinase assays described herein were performed at Millipore UK Ltd, Dundee Technology Park, Dundee DD2 1SW, UK.

TYK2 (h) = TYK2 (h) (Homo sapiens (Human), UniProt P29597); experiment: TYK2 kinase assay (33P-ATP filter binding, Millipore); type: biochemical
Experimental: as §2, §3, §4

JAK3 (h) = JAK3 (h) (Homo sapiens (Human), UniProt P52333); experiment: JAK3 kinase assay (33P-ATP filter binding, Millipore); type: biochemical
Experimental: as §2, §3, §4

[2] = Compound stability in human liver microsomes; type: in vitro ADME; conditions: for half-life at 5 μM: compound 5 μM, NADPH 1.0 mM, 37° C.; for CLint scaled at 5 μM: in vivo CLint extrapolated
Outline: as §1

JAK1 (h) = JAK1 (h) (Homo sapiens (Human), UniProt P23458); experiment: JAK1 kinase assay (33P-ATP filter binding, Millipore); type: biochemical
Outline: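 Radiometric assay of γ-33P-ATP incorporation into plate-immobilised MBP; kinase buffer pH 7.6 with 10 mM MgCl2, 10 μM unlabelled ATP typical, enzyme 10 or 20 nM final, 1% DMSO. Reactions ran 1 h at room temperature before scintillation counting. IC50 from 10-point half-log dilution curve, duplicates.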

Aurora-A (h) = Aurora-A (h) (Homo sapiens (Human), UniProt O14965); experiment: Aurora-A kinase assay (33P-ATP filter binding, Millipore); type: biochemical
Experimental: as §2, with “art. […]” for “art.”

FLT3 (h) = FLT3 (h) (Homo sapiens (Human), UniProt P36888); experiment: FLT3 kinase assay (33P-ATP filter binding, Millipore); type: biochemical
Experimental: as §2, with “art. […]” for “art.”

[3] = Pharmacokinetics after intravenous and oral administration in rats; type: in vivo; conditions: for Clearance (CL) after iv dosing / AUC(0-t) / half-life / Vd: dose 1 mg/kg (Ex. 27: 0.72 mg/kg), iv dosing; for F: oral bioavailability; for AUC(0-t) / half-life / Vd: rat, plasma; for Vd: read-out: Vss
Outline: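 Rats were dosed 1 or 2 mg/kg IV or 5 or 10 mg/kg orally, as water solution, HPMC/Tween 80, DMSO/saline, MC suspension or capsule. Plasma was sampled from 0.083 or 0.25 h up to 24 h and quantified by LC/MS/MS in MRM mode with ESI.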

[4] = human, liver microsomes, pH 7.4, Human liver microsomes 0.5 mg protein/mL
[5] = human, liver microsomes, pH 7.4, Human liver microsomes
[6] = pH 7.4, Rat liver microsomes 0.5 mg protein/mL, compound 5 μM, NADPH 1.0 mM, 37° C.
[7] = pH 7.4, Rat liver microsomes, in vivo CLint extrapolated
[8] = pH 7.4, Human liver microsomes 0.5 mg protein/mL
[9] = rat, liver microsomes, pH 7.4, Rat liver microsomes 0.5 mg protein/mL, compound 5 μM, NADPH 1.0 mM, 37° C.
[10] = rat, liver microsomes, pH 7.4, Rat liver microsomes, in vivo CLint extrapolated

Sequence of TYK2 (h) (P29597 whole entry): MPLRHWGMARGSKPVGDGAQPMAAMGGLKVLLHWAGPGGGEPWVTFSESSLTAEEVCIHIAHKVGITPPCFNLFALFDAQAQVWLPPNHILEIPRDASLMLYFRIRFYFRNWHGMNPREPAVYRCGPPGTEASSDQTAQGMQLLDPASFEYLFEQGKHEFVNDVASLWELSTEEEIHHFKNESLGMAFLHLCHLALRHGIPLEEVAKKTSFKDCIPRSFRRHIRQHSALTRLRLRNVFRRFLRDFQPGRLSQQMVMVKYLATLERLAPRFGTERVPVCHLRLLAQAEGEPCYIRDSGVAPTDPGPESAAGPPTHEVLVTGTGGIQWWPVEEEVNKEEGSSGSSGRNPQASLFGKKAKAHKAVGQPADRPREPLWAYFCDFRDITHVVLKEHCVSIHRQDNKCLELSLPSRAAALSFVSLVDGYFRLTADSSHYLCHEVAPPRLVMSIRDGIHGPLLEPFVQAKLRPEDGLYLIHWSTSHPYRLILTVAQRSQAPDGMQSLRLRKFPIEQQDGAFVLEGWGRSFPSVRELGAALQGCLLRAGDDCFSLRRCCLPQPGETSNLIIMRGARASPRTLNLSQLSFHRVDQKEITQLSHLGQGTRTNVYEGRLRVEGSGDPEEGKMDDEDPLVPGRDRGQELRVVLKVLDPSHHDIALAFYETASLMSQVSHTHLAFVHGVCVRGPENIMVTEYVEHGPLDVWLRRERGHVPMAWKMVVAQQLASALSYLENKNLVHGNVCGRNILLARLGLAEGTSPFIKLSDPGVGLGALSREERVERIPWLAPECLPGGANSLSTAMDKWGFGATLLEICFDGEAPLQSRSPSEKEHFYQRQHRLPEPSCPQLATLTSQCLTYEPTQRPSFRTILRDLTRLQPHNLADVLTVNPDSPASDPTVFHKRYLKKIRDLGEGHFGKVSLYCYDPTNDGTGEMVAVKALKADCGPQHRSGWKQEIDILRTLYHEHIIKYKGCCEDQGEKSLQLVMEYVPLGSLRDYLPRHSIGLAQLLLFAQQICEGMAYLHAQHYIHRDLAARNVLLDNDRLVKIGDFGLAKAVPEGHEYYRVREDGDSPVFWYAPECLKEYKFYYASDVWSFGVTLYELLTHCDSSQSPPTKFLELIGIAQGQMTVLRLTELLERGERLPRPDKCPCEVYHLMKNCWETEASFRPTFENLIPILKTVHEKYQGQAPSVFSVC
Sequence of JAK2 (h) (O60674 whole entry): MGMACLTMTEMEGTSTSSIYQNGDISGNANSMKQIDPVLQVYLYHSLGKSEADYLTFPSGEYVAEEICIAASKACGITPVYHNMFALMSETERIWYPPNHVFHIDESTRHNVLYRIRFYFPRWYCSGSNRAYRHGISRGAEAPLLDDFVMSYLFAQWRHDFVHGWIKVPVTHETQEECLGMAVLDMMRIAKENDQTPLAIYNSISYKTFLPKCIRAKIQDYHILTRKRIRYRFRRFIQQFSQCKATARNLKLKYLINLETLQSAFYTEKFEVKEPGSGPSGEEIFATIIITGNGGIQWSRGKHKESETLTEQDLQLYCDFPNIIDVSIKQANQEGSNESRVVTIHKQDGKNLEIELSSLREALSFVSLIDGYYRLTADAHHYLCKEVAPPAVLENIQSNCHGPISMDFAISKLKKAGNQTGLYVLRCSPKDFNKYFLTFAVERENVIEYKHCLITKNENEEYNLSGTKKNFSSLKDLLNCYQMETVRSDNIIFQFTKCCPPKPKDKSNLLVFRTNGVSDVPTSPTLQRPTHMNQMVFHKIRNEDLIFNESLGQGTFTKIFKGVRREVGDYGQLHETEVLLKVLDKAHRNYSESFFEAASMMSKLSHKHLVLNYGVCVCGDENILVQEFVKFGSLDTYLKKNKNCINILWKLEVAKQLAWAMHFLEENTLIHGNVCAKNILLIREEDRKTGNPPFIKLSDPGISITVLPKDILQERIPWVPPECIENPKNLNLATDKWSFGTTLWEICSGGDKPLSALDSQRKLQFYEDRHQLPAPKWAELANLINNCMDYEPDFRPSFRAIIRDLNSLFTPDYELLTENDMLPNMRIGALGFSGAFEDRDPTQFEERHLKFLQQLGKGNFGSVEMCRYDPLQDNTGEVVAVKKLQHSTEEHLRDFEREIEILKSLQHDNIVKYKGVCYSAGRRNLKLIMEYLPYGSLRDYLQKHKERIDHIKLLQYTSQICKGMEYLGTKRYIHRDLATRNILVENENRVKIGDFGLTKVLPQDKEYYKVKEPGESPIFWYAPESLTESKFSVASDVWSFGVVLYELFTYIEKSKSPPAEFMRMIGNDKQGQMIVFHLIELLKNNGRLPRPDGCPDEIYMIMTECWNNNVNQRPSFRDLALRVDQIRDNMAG
Sequence of JAK1 (h) (P23458 whole entry): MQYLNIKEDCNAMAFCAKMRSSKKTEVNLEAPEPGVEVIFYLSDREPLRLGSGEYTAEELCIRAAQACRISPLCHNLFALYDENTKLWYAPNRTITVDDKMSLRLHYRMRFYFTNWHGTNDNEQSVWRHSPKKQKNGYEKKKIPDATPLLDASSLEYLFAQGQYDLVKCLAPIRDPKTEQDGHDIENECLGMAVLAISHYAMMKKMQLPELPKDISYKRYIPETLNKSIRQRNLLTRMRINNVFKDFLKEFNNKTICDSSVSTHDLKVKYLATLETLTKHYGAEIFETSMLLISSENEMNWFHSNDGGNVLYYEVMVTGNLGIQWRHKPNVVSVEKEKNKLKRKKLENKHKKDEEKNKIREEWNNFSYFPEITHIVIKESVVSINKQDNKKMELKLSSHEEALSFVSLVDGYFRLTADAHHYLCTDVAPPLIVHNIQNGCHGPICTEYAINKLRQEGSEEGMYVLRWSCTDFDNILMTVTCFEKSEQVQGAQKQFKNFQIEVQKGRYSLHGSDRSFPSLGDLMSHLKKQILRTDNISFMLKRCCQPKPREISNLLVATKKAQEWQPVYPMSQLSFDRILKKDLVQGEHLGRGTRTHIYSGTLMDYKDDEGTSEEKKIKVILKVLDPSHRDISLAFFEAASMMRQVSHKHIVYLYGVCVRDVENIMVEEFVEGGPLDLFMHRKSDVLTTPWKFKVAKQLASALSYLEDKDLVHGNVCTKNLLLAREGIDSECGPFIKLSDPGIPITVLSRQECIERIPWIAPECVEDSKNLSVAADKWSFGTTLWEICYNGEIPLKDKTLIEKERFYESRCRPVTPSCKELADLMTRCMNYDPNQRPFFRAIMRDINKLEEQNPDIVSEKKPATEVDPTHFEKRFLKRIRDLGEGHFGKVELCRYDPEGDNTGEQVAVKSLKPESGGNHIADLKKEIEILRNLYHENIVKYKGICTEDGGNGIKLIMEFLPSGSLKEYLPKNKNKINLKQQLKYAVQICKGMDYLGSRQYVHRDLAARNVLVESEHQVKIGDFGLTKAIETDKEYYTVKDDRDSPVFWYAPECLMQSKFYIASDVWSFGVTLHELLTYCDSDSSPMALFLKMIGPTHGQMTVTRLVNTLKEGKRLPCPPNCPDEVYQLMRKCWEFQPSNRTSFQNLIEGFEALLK
Sequence of JAK3 (h) (P52333 whole entry): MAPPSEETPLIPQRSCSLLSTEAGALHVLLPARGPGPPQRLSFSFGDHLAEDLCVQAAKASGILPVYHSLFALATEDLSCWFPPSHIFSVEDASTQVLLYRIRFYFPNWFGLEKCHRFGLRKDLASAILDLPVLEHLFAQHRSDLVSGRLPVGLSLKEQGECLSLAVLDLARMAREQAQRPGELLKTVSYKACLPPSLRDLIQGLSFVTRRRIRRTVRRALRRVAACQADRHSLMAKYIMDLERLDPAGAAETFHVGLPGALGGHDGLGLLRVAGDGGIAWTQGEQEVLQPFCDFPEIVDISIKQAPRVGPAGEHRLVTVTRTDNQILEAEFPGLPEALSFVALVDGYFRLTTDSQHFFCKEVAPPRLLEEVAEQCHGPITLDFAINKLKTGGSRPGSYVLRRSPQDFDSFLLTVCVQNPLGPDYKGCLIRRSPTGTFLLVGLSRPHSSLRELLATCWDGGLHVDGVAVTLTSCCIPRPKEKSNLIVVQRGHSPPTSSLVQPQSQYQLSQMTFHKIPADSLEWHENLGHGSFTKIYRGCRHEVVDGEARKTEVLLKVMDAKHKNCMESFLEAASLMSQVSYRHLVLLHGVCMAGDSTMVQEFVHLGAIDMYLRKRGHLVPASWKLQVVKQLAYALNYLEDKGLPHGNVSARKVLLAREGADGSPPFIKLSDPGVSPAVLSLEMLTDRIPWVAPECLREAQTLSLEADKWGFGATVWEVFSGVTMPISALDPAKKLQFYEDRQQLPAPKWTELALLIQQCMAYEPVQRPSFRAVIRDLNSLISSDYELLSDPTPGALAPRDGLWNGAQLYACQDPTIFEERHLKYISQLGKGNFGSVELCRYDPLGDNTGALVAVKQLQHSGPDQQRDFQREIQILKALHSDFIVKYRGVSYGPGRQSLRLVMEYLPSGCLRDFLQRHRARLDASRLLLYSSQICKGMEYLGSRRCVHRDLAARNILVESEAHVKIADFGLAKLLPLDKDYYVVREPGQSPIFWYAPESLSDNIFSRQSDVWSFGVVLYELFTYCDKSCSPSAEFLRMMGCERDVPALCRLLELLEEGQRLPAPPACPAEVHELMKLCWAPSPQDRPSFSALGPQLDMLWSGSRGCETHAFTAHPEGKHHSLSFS
Sequence of Aurora-A (h) (O14965 whole entry): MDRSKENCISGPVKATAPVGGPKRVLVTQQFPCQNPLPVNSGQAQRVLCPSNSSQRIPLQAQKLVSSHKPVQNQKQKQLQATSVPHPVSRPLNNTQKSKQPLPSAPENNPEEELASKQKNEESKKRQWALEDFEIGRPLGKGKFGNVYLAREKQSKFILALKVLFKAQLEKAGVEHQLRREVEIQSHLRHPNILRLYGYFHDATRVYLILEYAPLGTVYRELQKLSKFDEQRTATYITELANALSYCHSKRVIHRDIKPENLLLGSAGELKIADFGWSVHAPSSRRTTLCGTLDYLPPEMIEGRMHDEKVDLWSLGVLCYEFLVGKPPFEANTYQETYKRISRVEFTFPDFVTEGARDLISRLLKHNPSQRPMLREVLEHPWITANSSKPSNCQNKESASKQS

half-life at 5 μM [1, 6] [min]	CLint scaled at 5 μM [1, 7] [mL/min/kg]	half-life at 5 μM [2, 8] [min]	CLint scaled at 5 μM ([2]; pH 7.4, Human liver microsomes) [mL/min/kg]	Structure (SMILES)	IC50 (JAK2 (h)) [µM]	IC50 (TYK2 (h)) [µM]	IC50 (JAK3 (h)) [µM]	half-life at 5 μM [2, 4] [min]	CLint scaled at 5 μM [2, 5] [mL/min/kg]	IC50 (JAK1 (h)) [µM]	IC50 (Aurora-A (h)) [µM]	IC50 (FLT3 (h)) [µM]	Clearance (CL) after iv dosing [3] [mL/min/kg]	F [3] [%]	AUC(0-t) [3] [ng·h/mL]	half-life [3] [min]	Vd [3] [L/kg]	half-life at 5 μM [1, 9] [min]	CLint scaled at 5 μM [1, 10] [mL/min/kg]	other results
–	–	–	–	Cn1cc(Nc2ncc(Cl)c(NC3CCC4(CC3)CCN(C(=O)CC#N)C4)n2)cn1 (single isomer, unassigned) [Ex. 14A, 3-(8-((5-chloro-2-((1-methyl-1H-pyrazol-4-yl)amino)pyrimidin-4-yl)amino)-2-azaspiro[4.5]decan-2-yl)-3-oxopropanenitrile]	0.005	0.001	0.039	203	8.55	0.0008	–	–	–	–	–	–	–	–	–	T1/2 ([1]; Rat liver microsomes 0.5 mg protein/mL, compound 5 μM, NADPH 1.0 mM, 37° C.): 10.60 min; CLint ([1]; Rat liver microsomes, in vivo CLint extrapolated): 234.31 mL/min/kg
13.2	188	67.2	25.9	Cn1cc(Nc2ncc(Cl)c(NC3CC4CN(S(C)(=O)=O)CC4C3)n2)cn1 (centres unmarked) [Ex. 31, 5-chloro-N^2-(1-methyl-1H-pyrazol-4-yl)-N^4-(2-(methylsulfonyl)octahydrocyclopenta[c]pyrrol-5-yl)pyrimidine-2,4-diamine]	0.012	0.018	0.178	–	–	0.001	0.004	0.134	61.2	25.7	272	39.6	2.06	–	–	–
12	208	187	9.3	Cn1cc(Nc2ncc(Cl)c(NC3CC4CN(C(=O)CC#N)CC4C3)n2)cn1 (centres unmarked) [Ex. 12, 3-(5-((5-chloro-2-((1-methyl-1H-pyrazol-4-yl)amino)pyrimidin-4-yl)amino)hexahydrocyclopenta[c]pyrrol-2(1H)-yl)-3-oxopropanenitrile]	0.018	0.007	0.359	–	–	0.001	–	–	121	39.2	143	14.4	1.75	–	–	–
–	–	–	–	CN(c1nc(Nc2cnn(C)c2)ncc1Cl)C1CCC2(CC1)CCN(C(=O)CC#N)C2 (single isomer, unassigned) [Ex. 4A, 3-(8-((5-chloro-2-((1-methyl-1H-pyrazol-4-yl)amino)pyrimidin-4-yl)(methyl)amino)-2-azaspiro[4.5]decan-2-yl)-3-oxopropanenitrile]	0.083	–	–	37.3	46.6	0.02	–	–	48.8	21.81	345	51.6	1.38	12.4	200	–
–	–	–	–	CC(=O)N1CCC2(CCC(Nc3nc(Nc4cnn(C)c4)ncc3Cl)CC2)CC1 [Ex. 28, 1-(9-((5-chloro-2-((1-methyl-1H-pyrazol-4-yl)amino)pyrimidin-4-yl)amino)-3-azaspiro[5.5]undecan-3-yl)ethanone]	0.004	0.004	0.047	268	6.49	0.0009	0.022	0.016	71	63.6	251	39	3.06	73.6	33.8	–
